Reference: US20240325548A1, “DYNAMIC BIOACTIVE SCAFFOLDS AND THERAPEUTIC USES THEREOF AFTER CNS INJURY” (Northwestern University, priority 2021, published 2024)

What was measured:
β1-INTEGRIN (ITGB1) = biological target: T1, β1-INTEGRIN (ITGB1) (Homo sapiens, UniProt P05556); assay: ITGB1 activation and intracellular signaling in hNPCs treated with IKVAV PAs (confocal microscopy, WB); type: cell-based
T1 construct: endogenous in cells; host or cells: hNPCs differentiated from human embryonic stem cells HUES 64
From the text: (§1) Neural progenitor cells (NPCs) were differentiated from human embryonic stem cells HUES 64 (Harvard University) (see FIG. 2C). In short, 70% confluent stem cell cultures grown in Matrigel (Thermo Fisher) coated plates with mTESR medium (STEMCELL Technologies), were switched to N2B27 medium (50% DMEM: F12, 50% Neurobasal, supplemented with NEAA, Glutamax, N2 and B27; Gibco) containing dual SMAD inhibitors (SB431542, DNSK International and LDN-193189, Tocris) for 12 days to induce the generation of neural progenitors. Neuralization was enhanced by supplementing medium with laminin from day 5 to 12. Next, neural rosettes were dissociated with neural rosette selection reagent (STEMCELL Technologies) to obtain NPCs, which are expanded in N2B27 (Gibco) medium supplemented with bFGF (Millipore). For experimentation in the different PA platforms, NPCs were dissociated with Accutase (Innovative Cell technology), and cultured in the distinct platforms with DMEM: F12+N2+B27 medium with hyclone penicillin-streptomycin (GE Healthcare) and ascorbic acid (0.2 μg/mL; Sigma-Aldrich).
(§2) For IKVAV PA treatments, hNPCs were cultured on ornithine coatings (German Glass, Chemglass Life Science) in 6 well and 24 well plates at a density of 500,000 cells/well and 80,000 cells/well respectively. hNPCs were treated with […] of IKVAV PAs ([PA]=6 mM, [KCl]=3 mM, [NaCl]=150 mM) or recombinant laminin protein (10 mg/mL) in solution. IKVAV PA2 and IKVAV PA5 were also mixed with 5 mM CaCl2) at a ratio PA:CaCl2) 6:1 to treat hNPCs. For 2D experiments, hNPCs were cultured on the different IKVAV PAs or laminin coatings in 6 well and 24 well plates at densities mentioned above. For co-assembled experiments, hNPCs were cultured on the different co-assembled PA coatings in 6 well and 24 well plates at a density of 400,000 cells/well and 50,000 cells/well respectively.
(§3) hNPCs were fed 4 times a week with DMEM: F12+N2^+B27 medium with hyclone penicillin-streptomycin and ascorbic acid. After 24 h, 72 h 1- or 2-weeks in vitro, cell lysates were harvested or fixed for WB or ICC, respectively. Three replicates per condition and at least three independent experiments were carried out for all conditions investigated.
(§4) For immunofluorescence, fixed primary cultures or free-floating tissue sections (40 m Thick) were incubated in blocking buffer containing 0.02% Triton-X (Sigma-Aldrich), 1% NHS (Gibco) and PBS 1× (Gibco). Samples were incubated with primary antibodies over night at 4° C. Alexa-488, Alexa-555 and/or Alexa-647 (1:500, Thermofisher) were used as secondary antibodies. DAPI (1:500, Thermofisher) was used to stain nuclei. Finally, the samples were mounted on coverslips with Immu-Mount (Fisher Scientific) solution for imaging.
RIPA buffer (Thermofisher) with a cocktail of Halt Protease and Phosphatase Inhibitors (Thermofisher) was used to extract protein from in vitro and in vivo samples. For in vivo studies, spinal cord tissue was then sonicated using a horn sonicator (Branson) to break up the tissue. A Pierce™ BCA Protein Assay Kit (Thermofisher) was used to determine protein content for all samples used. Protein extracts obtained from cell cultures or tissue were separated using an SDS-polyacrylamide gel and electro-transferred to a nitrocellulose membrane (Bio-Rad). Membranes were blocked for 30 minutes to 1 hour using a 5% milk solution (Bio-Rad) and incubated over night with primary antibodies. Corresponding secondary HRP-conjugated antibodies (1:1000, ThermoFisher) were used for 1 h at room temperature. Radiance Bioluminescent ECL substrate (Azure Biosystems) was used to detect protein signal. The membranes were imaged using the Azure Biosystems imager and densitometry analysis were performed using ImageJ software.

hNPCs [1] = assay: Neuronal differentiation of hNPCs treated with IKVAV PAs (TUJ-1+ cells); type: cell-based, human
From the text: as §1, §2, §3, §4
For in vitro cell quantification, image files were imported into NIH Image J (1.51) software and the “analyze particles” and “cell counter” functions were used to measure the total number of cells in a determined area. Serial tissue sections were stained with NeuN and ChAT using free-floating immunostaining were quantified using Nikon Elements software. The rostral and caudal borders of the lesions were chosen as the first cross-sections that had NeuN staining in all four gray matter horns. 8 sections within the lesion were chosen per animal and expressed as number of neurons per section. Automated multichannel image acquisition, image stitching, and z-stack reconstruction ([…]) were carried out on a Nikon GasP R1 confocal microscope to image the entire selected cross-section for NeuN and Chat markers for all conditions.

[2] = T2-NMR spin-spin relaxation rate of PA assemblies; type: physicochemical; settings: T2 relaxation of K residue of IKVAV PAs, no Ca2+
Method: NMR spectra were acquired at 600 MHz on a Tecmag NMR spectrometer using a Doty diffusion probe with a sweep width of 6 kHz and 16k data points or at 600 MHz on a Brucker Neo system with QCI-F cryoprobe.
NMR spectra for IKVAV PAs were recorded at 25° C. using TFA-d, H2O/D2O in 9/1 ratio (D2O contains 0.05 wt. % 3-(trimethylsilyl) propionic-2,2,3,3-d4 acid, sodium salt) as solvents. Chemical shifts are reported in part per million (ppm). Structural assignment was performed using ^1H,^1H-gCOSY, ^1H,^13C-gHSCQAD, TOCSY and NOESY. Multiplicities are quoted as singlet (s), doublet (d), multiplets (m), doublet of doublets (dd), doublet of doublet of doublets (ddd), triplet (t), quartet (q). The […] and typical spectra required 32 scans. Additional scans (512) were required for accurate estimation of the aromatic signal intensity since the epitope containing aromatic protons was present at only 10 mol %.
The spin-spin relaxation rates were measured using the Carr-Purcell-Gill-Meiboom pulse sequence with a delay time of 0.2 ms in a variable loop. The peak intensity data was fit to and exponential in the form:
where τ is the length of the delay time, R2 is the spin-spin relaxation rate and b are the baseline.

[3] = tested on: murine model of severe spinal cord injury (SCI); assay: Corticospinal tract (CST) axon regrowth after SCI (BDA tracing); type: in vivo, mouse; settings: 12 weeks after injury, BDA-labeled axons
Method: (§5) All experiments were conducted at the Simpson Querrey Institute at Northwestern University. 182 CD1 mice (Charles River) were subjects of this study (N=38 Sham, N=38 IKVAV PA2 alone, N=38 IKVAV PA2+FGF2 PA1, N=38 IKVAV PA2+FGF2 PA2, N=12 IKVAV PA1, N=12 Backbone PA, N=6 IKVAV PA4). The age of animals used in the study was in the range of 10-16 weeks. 8 independent in vivo experiments were carried out (injury+PA injection) and each of the 8 experiments had animals of the exact same age which were injected with at least the 4 main treatment groups: Sham, IKVAV PA2 alone, IKVAV PA2+FGF2 PA1, and IKVAV PA2+FGF2 PA2. Animals were anesthetized using 2.5% isoflurane gas with oxygen. A laminectomy was performed to expose the spinal cord at the T10-T11 spinal level. A severe contusive injury was performed using the Infinite Horizon Spinal Cord Impactor system (IH-0400 Precision Systems and Instrumentation) with 85 kdyn of impact force and a dwell time of 60 s. After the lesion, the skin was sutured using 9 mm wound clips (BD Biosciences) and the animals were recovered on a heating pad to maintain body temperature. Bladders were manually expressed daily during the entire 12 weeks of the experiment.
PAs (dissolved in sterile NaCl 0.9% solution at 1 wt %) were injected 24 h after SCI using a glass capillary micropipette (Sutter Instruments, Novato, CA) (outer diameter, 100 m) coated with Sigmacote (Sigma-Aldrich) to reduce surface tension as described elsewhere (19). The capillaries were loaded onto a Hamilton syringe using a female Luer adaptor (World Precision Instruments) controlled by a Micro4 microsyringe pump controller (World Precision Instruments). Under isoflurane anesthesia, autoclips were removed and the injury site was exposed. At 24 h post injury, the laminectomy in the spinal column was still intact and the bruise created by the lesion was visible. A stereotaxic Kopf apparatus was used to position the micropipette just dorsal to the lesion. The micropipette was lowered to a depth of 750 m measured from the dorsal surface of the cord, and 4-6 μL of the diluted amphiphile solution was injected at 1 L/min. […]
Axons labeled using BDA (Thermofisher, N7167) or stained with 5HT (Abcam) were quantified using Imaris® software version 9.3 as previously described (21). Lines were drawn across longitudinal spinal cord sections from the proximal border (PB) to the distal border (DB) of the SCI lesion at consistent distances and the number of axons intercepting the lines drawn was counted by researchers that were blinded to the experimental conditions. Multiple sections through the middle of the cord, where BDA or 5HT staining was denser, were counted per mouse and expressed as total intercepts per location, per animal. […]

[4] = tested on: murine model of severe spinal cord injury (SCI); assay: Glial scar, GAP-43, MBP, laminin and fibronectin in the SCI lesion (immunofluorescence, WB); settings: mouse, in vivo
Method: as §5, with “After the lesion, the skin was sutured using 9 mm wound clips (BD Biosciences) and the animals were recovered on a heating pad to maintain body temperature. Bladders were manually expressed daily during the entire 12 weeks of the experiment.” left out
PAs (dissolved in sterile NaCl 0.9% solution at 1 wt %) were injected 24 h after SCI using a glass capillary micropipette (Sutter Instruments, Novato, CA) (outer diameter, 100 m) coated with Sigmacote (Sigma-Aldrich) to reduce surface tension as described elsewhere (19). […] The micropipette was lowered to a depth of 750 m measured from the dorsal surface of the cord, and 4-6 μL of the diluted amphiphile solution was injected at 1 L/min. […]

hNPCs [5] = assay: hNPC attachment, proliferation and phenotype on co-assembled PA coatings (EdU, SOX-2, PAX6); type: cell-based, human
From the text: as §1, §2, §3
For the hNPCs proliferation assay, 2 μM of the thymidine analog 5-ethynyl-2′-deoxyuridine (EdU, Thermo Fisher) was incorporated into the culture medium for 24 h. Cells were fixed at the indicated time points in 4% paraformaldehyde (PFA) for 15 min at RT. After fixation, samples were washed in PBS twice and then stained with Click-iT™ EdU Cell Proliferation Kit containing 11 mM CuSO4 (from 50 mM stock) and 1 μg/mL of Alexa Fluor-555 azide (from 0.5 mg/mL, Thermo Fisher) for 30 minutes at RT in the dark. The staining cocktail was then removed, and cells were washed with PBS. Then, hNPCs were counterstained with anti-rabbit SOX-2 antibody following the immunofluorescence protocol described below and 4′, 6-diamidino-2-phenylindole (DAPI, Thermo Fisher) at 5 μg/mL in PBS for 20 min at RT. The cells were then washed with PBS and mounted with Immu-Mount (Fisher Scientific) for imaging.
as §4, with “Finally, the samples were mounted on coverslips with Immu-Mount (Fisher Scientific) solution for imaging.” left out

T1 sequence (P05556 21-798): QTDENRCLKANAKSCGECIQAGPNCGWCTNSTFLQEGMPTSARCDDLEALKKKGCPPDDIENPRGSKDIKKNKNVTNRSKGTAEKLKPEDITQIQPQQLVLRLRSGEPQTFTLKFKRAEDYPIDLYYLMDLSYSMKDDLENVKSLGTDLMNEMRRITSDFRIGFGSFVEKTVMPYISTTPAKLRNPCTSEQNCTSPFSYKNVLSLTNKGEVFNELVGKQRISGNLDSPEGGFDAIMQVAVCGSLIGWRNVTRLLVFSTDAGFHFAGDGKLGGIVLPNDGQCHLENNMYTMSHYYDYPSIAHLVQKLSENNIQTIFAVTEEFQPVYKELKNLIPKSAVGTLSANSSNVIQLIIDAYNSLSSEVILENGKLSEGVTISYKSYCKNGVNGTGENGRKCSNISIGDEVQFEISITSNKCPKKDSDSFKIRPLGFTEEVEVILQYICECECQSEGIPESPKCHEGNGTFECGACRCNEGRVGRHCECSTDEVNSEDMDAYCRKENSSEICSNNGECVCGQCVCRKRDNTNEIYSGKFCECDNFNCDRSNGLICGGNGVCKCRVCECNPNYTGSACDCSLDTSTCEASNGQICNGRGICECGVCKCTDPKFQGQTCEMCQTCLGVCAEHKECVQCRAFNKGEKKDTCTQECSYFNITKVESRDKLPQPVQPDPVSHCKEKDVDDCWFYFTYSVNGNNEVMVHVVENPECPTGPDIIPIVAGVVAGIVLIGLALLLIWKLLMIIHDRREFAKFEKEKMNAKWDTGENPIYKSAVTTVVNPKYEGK

Substance | in vitro bioactivity (summary) (β1-INTEGRIN (ITGB1)) | percentage of induction of TUJ-1+ neuronal cells (hNPCs [1]) | R2 [2] | CST axon regrowth within the lesion [3] | glial scar (reactive astrocytes, GFAP) at the borders of the injury [4] | percentage of proliferating EdU+ and SOX2+ cells (hNPCs [5]) | percentage of neuronal progenitor cells PAX6+ (hNPCs [5]; one week later)
C16-A4E4GIKVAV [IKVAV PA8] | low level of in vitro bioactivity | 7.5±0.5% | 4.5 ± 0.2 s⁻¹ |  |  |  | 
C16-AVA2E4GIKVAV [IKVAV PA7] | low level of in vitro bioactivity | 7.4±0.6% | 6.0 ± 0.03 s⁻¹ |  |  |  | 
C16-AVG2E4GIKVAV [IKVAV PA3] | low level of in vitro bioactivity | 7.5±0.6% | 4.5 ± 0.7 s⁻¹ |  |  |  | 
C16-V2A2E2 (VVAAEE) [Backbone PA] |  |  |  | hardly observed | dense population of reactive astrocytes expressing high levels of GFAP |  | 
C16-VA3E4GIKVAV [IKVAV PA6] | low level of in vitro bioactivity | 7.9±1.3% | 6.1 ± 0.8 s⁻¹ |  |  |  | 
laminin |  |  |  |  |  | decreased significantly | increased percentage
